Source: patent publication US20170009266A1, “PROCESS FOR THE ATTACHMENT OF A GALNAC MOIETY COMPRISING A (HETERO)ARYL GROUP TO A GLCNAC MOIETY, AND PRODUCT OBTAINED THEREBY” (SYNAFFIX B.V., priority 2014, published 2017)

How the values were obtained:
β(1,4)-Gal-T1(Y289L) = biological target: T1, β(1,4)-Gal-T1(Y289L) (Bos taurus, UniProt P08037, I205M/L206V/P187L/V158I/Y289L); test: Glycosyltransfer of UDP-galactosamine derivatives to trimmed trastuzumab with Gal-T1(Y289L) expressed in E. coli, mass spectral analysis; assay type: biochemical, bovine; settings: trimmed trastuzumab 10 mg/mL; UDP derivative 7 mM; enzyme 2 mg/mL; pH 8.0, 30° C. overnight; reduced sample
T1 construct: made in house; host or cells: E. coli
T1 sequence (P08037 1-402 V158I/P187L/I205M/L206V/Y289L): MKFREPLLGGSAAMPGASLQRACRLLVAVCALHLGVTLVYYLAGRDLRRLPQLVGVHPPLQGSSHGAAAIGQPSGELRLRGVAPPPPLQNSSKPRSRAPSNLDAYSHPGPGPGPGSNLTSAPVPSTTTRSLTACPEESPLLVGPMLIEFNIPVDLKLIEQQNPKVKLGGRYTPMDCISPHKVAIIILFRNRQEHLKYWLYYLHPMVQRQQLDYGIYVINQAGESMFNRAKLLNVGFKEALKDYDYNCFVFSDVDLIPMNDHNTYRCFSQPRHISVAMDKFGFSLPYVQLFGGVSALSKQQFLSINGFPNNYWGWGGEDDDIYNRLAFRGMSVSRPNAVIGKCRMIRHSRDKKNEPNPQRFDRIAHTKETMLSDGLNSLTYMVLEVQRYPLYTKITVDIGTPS
Method: General Protocol for Glycosyltransfer of Galactose Derivative UDP-GalNAz 21-24 with Gal-T1(Y289L) (Expressed in E. coli).
Enzymatic introduction of UDP-Gal derivatives 21-24 onto deglycosylated trastuzumab was effected with a mutant of bovine β(1,4)-galactosyltransferase [β(1,4)-Gal-T1(Y289L)] (expressed in E. coli). The deglycosylated trastuzumab (10 mg/mL) was incubated with the appropriate UDP-galactose derivative (0.4 mM) and β(1,4)-Gal-T1(Y289L) (1 mg/mL) in 10 mM MnCl2 and 25 mM Tris-HCl pH 8.0 for 16 hours at 30° C.
Next, the functionalized trastuzumab was incubated with protein A agarose (40 μL per mg IgG) for 2 hours at 4° C. The protein A agarose was washed three times with PBS and the IgG was eluted with 100 mM glycine-HCl pH 2.7. The eluted IgG was neutralized with 1 M Tris-HCl pH 8.0 and concentrated and washed with PBS using an Amicon Ultra-0.5, Ultracel-10 Membrane (Millipore) to a concentration of 15-20 mg/mL.
Trimmed trastuzumab (10 mg/mL, 3.3 nmol), obtained by Endo S treatment of trastuzumab, was incubated with UDP-galactosamine variant 21 (2.5 mM) and β(1,4)-Gal-T1(Y289L) (0.68 mg/mL, 45 μL) in 10 mM MnCl2 and 25 mM Tris-HCl pH 8.0 at 30° C. overnight.
Trimmed trastuzumab (10 mg/mL, 1.3 nmol), obtained by Endo S treatment of trastuzumab, was incubated with UDP-galactosamine variant 22 (4 mM) and β(1,4)-Gal-T1(Y289L) (1.4 mg/mL, 10 μL) in 10 mM MnCl2 and 25 mM Tris-HCl pH 8.0 at 30° C. overnight. Mass spectral analysis of the reduced sample indicated the formation of the product (49750.9 Da, approximately 80% of total heavy chain), resulting from galactosamide furan-2-carboxyl acid transfer to core GlcNAc(Fuc) substituted trastuzumab heavy chain as shown in FIG. 9.
Trimmed trastuzumab (10 mg/mL, 6.6 nmol), obtained by Endo S treatment of trastuzumab, was incubated with the 4-azido-3,5-difluorobenzoyl derivative of UDP-galactosamine (23, 7 mM) and β(1,4)-Gal-T1(Y289L) (2 mg/mL) in 10 mM MnCl2 and 25 mM Tris-HCl pH 8.0 at 30° C. overnight. Mass spectral analysis of the reduced sample indicated the formation of a one major product (49813 Da, approximately 90% of total heavy chain), resulting from transfer of 23 to core GlcNAc(Fuc)-substituted trastuzumab heavy chain.
Trimmed trastuzumab (10 mg/mL, 1.3 nmol), obtained by Endo S treatment of trastuzumab, was incubated with UDP-galactosamine variant 24 (4 mM) and (3(1,4)-Gal-T1(Y289L) (1.4 mg/mL, 10 μL) in 10 mM MnCl2 and 25 mM Tris-HCl pH 8.0 at 30° C. overnight.

Gal-T1(Y289L) = biological target: T2, Gal-T1(Y289L) (Bos taurus, UniProt P08037, I205M/L206V/P187L/V158I/Y289L); test: Glycosyltransfer to trimmed trastuzumab with Gal-T1(Y289L) expressed in CHO; assay type: biochemical, bovine; settings: trimmed trastuzumab 10 mg/mL; UDP derivative 5 mM; enzyme 0.5 mg/mL; pH 8.0, 30° C. overnight
T2 construct: host or cells: CHO K1
T2 sequence (P08037 74-402 V158I/P187L/I205M/L206V/Y289L): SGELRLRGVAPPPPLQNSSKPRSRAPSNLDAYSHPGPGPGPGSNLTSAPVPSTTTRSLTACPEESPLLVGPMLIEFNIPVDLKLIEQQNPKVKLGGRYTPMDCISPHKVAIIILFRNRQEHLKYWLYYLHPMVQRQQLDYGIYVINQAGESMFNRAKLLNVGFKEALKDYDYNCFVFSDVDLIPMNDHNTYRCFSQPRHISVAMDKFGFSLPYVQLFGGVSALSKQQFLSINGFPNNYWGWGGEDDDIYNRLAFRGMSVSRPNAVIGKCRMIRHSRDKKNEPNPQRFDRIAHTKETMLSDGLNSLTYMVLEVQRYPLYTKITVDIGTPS
Text: A set of Gal-T 1 mutants encoding residues 74-402 of bovine Gal-T 1 were transiently expressed in CHO K1 cells by Evitria (Zurich, Switzerland) which include the Gal-T1 single mutants Y289L (represented by SEQ ID NO: 26), Y289F (represented by SEQ ID NO: 27), Y289M (represented by SEQ ID NO: 28), Y289V (represented by SEQ ID NO: 29), Y289A (represented by SEQ ID NO: 30), and Y289G (represented by SEQ ID NO: 31), and the Gal-T1 double mutants Y289L,C342T (represented by SEQ ID NO: 32), and Y289M,C342T (represented by SEQ ID NO: 33). The mutants were purified using a cation exchange column (Source 15S HR16/10 column, GE Healthcare) as described above. Purified proteins were analyzed by SDS-PAGE.
Trimmed trastuzumab (10 mg/mL, […] obtained by Endo S treatment of trastuzumab, was incubated with the 4-azido-3,5-difluorobenzoyl derivative of UDP-galactosamine (23, 5 mM) and one of the Gal-T1 single mutants Y289L, Y289M, Y289A or Y289G (expressed in CHO as described above) (0.5 mg/mL) in 10 mM MnCl2 and 25 mM Tris-HCl pH 8.0 at 30° C. overnight. Mass spectral analysis of the reduced sample indicated a partial conversion of the core GlcNac(Fuc)-substituted trastuzumab heavy chain (49504 Da) into product 30 (49818 to 49825 Da, 20 to 50% of total heavy chain depending on the Gal-T1 mutant used), resulting from transfer of 23 to core GlcNAc(Fuc)-substituted trastuzumab heavy chain. […]

## [N-]=[N+]=Nc1c(F)cc(C(=O)N[C@H]2[C@@H](OP(=O)(O)OP(=O)(O)OC[C@H]3O[C@@H](n4ccc(=O)[nH]c4=O)[C@H](O)[C@@H]3O)O[C@H](CO)[C@H](O)[C@@H]2O)cc1F [Compound 23, 4-azido-3,5-difluorobenzoyl Derivative of UDP-GalNH2]
β(1,4)-Gal-T1(Y289L)
  product, % of total heavy chain: approximately 90%
Gal-T1(Y289L)
  observed conversion: approximately 30%
